The text below walks through data of patent US11208412B2 (DAEGU-GYEONGBUK MEDICAL INNOVATION FOUNDATION, priority 2017, dated 2021).

Assay in all cases: Kinase selectivity, DiscoverX scanMAX Kinase assay panel (% control)
Holding throughout (assay type): binding

For experiment [1], the target named is T1, kinases of the scanMAX Kinase assay panel (Homo sapiens, UniProt O00141).
T1 construct: purchased DiscoverX Co. (contract measurement) scanMAX Kinase assay panel
T1 sequence (O00141 1-431): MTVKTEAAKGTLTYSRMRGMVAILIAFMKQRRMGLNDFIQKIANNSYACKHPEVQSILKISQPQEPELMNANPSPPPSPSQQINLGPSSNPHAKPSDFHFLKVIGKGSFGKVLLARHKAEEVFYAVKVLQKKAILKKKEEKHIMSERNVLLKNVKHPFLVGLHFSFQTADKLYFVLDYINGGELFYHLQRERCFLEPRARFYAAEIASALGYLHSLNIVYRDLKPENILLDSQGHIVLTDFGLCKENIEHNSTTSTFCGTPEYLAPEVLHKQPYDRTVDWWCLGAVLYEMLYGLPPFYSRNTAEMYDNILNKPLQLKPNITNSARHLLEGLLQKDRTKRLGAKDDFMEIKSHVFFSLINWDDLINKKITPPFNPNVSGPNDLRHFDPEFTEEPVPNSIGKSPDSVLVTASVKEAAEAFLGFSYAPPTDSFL
The settings on record: kinase SGK; 1 uM in DMSO. The gist of the method:
(§1)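 Compounds tested at 1 uM against the scanMAX kinase panel. Signal expressed as % control = (compound − positive control)/(DMSO negative control − positive control) × 100, where positive control = 0% and DMSO = 100%; below 35% counted as activity on that kinase.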

Experiment [2] has as its target T2, kinases of the scanMAX Kinase assay panel (Homo sapiens, UniProt P33981).
T2 construct: purchased DiscoverX Co. (contract measurement) scanMAX Kinase assay panel
T2 sequence (P33981 1-857): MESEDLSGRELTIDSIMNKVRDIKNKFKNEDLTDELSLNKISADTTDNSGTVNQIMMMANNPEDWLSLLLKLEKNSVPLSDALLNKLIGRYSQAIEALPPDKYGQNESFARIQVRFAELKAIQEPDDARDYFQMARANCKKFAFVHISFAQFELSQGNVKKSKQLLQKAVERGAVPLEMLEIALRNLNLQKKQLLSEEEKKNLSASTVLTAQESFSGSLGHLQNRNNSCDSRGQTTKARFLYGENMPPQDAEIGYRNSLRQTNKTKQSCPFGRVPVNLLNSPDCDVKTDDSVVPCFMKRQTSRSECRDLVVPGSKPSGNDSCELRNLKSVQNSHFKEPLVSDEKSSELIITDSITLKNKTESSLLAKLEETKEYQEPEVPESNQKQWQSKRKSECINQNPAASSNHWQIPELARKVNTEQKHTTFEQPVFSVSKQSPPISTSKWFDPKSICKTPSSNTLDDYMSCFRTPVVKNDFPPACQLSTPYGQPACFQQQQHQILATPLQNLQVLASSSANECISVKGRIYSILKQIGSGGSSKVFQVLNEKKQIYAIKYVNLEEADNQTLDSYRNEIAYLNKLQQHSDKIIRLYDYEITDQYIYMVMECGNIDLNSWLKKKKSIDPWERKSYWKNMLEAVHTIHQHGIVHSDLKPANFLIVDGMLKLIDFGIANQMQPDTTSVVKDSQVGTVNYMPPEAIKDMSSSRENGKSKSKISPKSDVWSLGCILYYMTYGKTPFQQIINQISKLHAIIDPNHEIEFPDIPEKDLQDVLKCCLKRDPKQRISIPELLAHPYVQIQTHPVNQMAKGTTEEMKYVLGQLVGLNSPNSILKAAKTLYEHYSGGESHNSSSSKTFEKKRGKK
The settings on record: kinase TTK; 1 uM in DMSO. The gist of the method:
as §1

Experiment [3] has as its target T3, kinases of the scanMAX Kinase assay panel (Homo sapiens, UniProt O95382).
T3 construct: purchased DiscoverX Co. (contract measurement) scanMAX Kinase assay panel
T3 sequence (O95382 1-1288): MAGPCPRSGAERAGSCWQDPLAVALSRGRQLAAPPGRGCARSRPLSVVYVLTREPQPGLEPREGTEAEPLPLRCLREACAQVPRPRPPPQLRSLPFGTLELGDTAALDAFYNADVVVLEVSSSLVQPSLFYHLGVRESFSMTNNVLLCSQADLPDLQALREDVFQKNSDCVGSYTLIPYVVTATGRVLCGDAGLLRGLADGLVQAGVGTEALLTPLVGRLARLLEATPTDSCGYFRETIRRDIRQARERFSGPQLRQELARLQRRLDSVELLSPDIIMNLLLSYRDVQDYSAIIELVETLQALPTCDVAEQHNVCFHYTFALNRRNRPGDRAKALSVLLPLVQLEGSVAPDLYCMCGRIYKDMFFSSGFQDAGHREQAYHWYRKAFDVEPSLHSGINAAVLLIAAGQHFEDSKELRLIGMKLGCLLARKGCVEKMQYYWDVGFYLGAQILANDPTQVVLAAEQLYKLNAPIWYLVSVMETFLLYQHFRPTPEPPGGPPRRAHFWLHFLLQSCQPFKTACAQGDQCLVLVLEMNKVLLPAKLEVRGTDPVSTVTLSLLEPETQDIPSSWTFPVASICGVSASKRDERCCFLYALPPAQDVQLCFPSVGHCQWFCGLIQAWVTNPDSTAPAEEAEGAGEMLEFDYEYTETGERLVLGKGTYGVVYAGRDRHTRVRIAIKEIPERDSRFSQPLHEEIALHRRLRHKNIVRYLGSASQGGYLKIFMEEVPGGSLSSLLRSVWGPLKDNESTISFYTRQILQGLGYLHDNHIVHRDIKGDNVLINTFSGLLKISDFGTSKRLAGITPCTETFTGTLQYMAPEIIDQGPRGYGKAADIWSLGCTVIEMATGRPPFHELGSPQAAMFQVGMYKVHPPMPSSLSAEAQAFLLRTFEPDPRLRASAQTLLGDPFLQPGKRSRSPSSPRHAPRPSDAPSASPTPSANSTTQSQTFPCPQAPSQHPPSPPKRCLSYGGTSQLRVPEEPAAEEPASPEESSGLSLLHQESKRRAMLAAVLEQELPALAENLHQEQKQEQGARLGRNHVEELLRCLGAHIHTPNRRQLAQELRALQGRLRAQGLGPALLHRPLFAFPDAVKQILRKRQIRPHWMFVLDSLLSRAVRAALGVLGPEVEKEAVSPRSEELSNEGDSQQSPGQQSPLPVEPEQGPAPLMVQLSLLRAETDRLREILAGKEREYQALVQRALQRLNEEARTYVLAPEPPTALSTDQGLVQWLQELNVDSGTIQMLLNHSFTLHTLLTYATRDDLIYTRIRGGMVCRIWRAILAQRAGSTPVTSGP
The settings on record: ASK2; 1 uM. A digest of the protocol:
as §1

Experiment [4] has as its target T4, kinases of the scanMAX Kinase assay panel (Homo sapiens, UniProt Q92918).
T4 construct: purchased DiscoverX Co. (contract measurement) scanMAX Kinase assay panel
The settings on record: HPK1; 1 uM. The gist of the method: as §1

T4 sequence (Q92918 whole entry): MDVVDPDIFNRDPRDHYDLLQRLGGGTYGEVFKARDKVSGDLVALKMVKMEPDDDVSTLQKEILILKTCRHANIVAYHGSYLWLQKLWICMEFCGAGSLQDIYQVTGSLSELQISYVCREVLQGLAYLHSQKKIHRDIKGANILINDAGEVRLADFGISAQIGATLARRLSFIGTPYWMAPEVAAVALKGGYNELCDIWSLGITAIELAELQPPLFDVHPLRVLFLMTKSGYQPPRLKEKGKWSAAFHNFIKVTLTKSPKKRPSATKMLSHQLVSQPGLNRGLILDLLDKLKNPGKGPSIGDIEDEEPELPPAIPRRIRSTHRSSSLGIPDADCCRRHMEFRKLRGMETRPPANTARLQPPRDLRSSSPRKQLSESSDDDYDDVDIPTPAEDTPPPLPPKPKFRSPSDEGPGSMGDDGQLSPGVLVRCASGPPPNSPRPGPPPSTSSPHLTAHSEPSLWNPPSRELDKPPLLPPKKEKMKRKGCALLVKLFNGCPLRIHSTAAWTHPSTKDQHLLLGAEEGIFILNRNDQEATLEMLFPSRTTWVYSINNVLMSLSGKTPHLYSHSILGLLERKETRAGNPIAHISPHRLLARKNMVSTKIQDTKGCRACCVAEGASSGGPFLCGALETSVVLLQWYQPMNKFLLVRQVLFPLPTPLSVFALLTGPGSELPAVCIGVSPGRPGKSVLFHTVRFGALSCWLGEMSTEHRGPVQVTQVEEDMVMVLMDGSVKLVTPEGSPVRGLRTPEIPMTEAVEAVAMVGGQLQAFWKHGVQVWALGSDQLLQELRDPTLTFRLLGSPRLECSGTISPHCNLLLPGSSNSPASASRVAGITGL

Take `CNc1nc(Nc2ccc(C(=O)N3CCOCC3)cc2OC)nc2[nH]cc(C#N)c12` [Example 1, 2-((2-methoxy-4-(morpholine-4-carbonyl)phenyl)amino)-4-(methylamino)-7H-pyrrolo[2,3-d]pyrimidine-5-carbonitrile]: the remaining binding at 1 µM in experiment [1] was 48%; in experiment [2], 12%; in experiment [3], 56%; in experiment [4], 79%.

Consider `CC1(Nc2nc(Nc3cnn([C@H]4CCN(C5COC5)C[C@@H]4F)c3Cl)nc3[nH]cc(C#N)c23)CC1` [Example 52, 2-((5-chloro-1-((3S,4S)-3-fluoro-1-(oxetane-3-yl)piperidine-4-yl)-1H-pyrazole-4-yl)amino)((1-methylcyclopropyl)amino)-7H-pyrrolo[2,3-d]pyrimidine-5-carbonitrile], for which the remaining binding at 1 µM was 18% in experiment [1], 0.25% in experiment [2], 11% in experiment [3] and 4.3% in experiment [4].

With `CCNc1nc(Nc2ccc(C(=O)N3CCC(N4CCOCC4)CC3)cc2OC)nc2[nH]cc(C(F)(F)F)c12` [Example 104, (4-((4-(ethylamino)-5-(trifluoromethyl)-7H-pyrrolo[2,3-d]pyrimidine-2-yl)amino)-3-methoxyphenyl)(4-morpholinopiperidine-1-yl)methanone], the remaining binding at 1 µM came to 100% in experiment [1], 1.4% in experiment [2], 92% in experiment [3] and 100% in experiment [4].
